From ChEMBL document CHEMBL5058649, “Data for DCP probe BAY 1816032” (2022)
Activity calls are given as the source filed them. The rule behind the calls is not given here.

Key:
[1] = species on record: Rattus norvegicus; settings: Compound concentration 10.0 uM
[2] = biological target: Protein kinase C epsilon type (Homo sapiens) (UniProt Q02156); assay: PRKCE DiscoveRx kinase panel; settings: Compound concentration 1.0 uM
[3] = biological target: Serine/threonine-protein kinase 10 (Homo sapiens, UniProt O94804); assay: LOK DiscoveRx kinase panel
[4] = biological target: Histamine H3 receptor (Homo sapiens) (UniProt Q9Y5N1); settings: Compound concentration 10.0 uM
[5] = biological target: Melanocyte-stimulating hormone receptor (Homo sapiens) (UniProt Q01726); assay: Melanocortin MC1 Eurofins-Panlabs radioligand binding assay; settings: Compound concentration 10.0 uM
[6] = HeLa-MaTu-ADR cell line Proliferation assay; format: functional, Homo sapiens; settings: time 4 day
[7] = biological target: Cyclin-dependent kinase 4/cyclin D1 (Homo sapiens) (UniProt P11802+P24385); assay: CDK4-cyclinD1 DiscoveRx kinase panel; format: protein-complex assay; settings: Compound concentration 1.0 uM
[8] = biological target: Phosphatidylinositol 3-kinase catalytic subunit type 3 (Homo sapiens) (UniProt Q8NEB9); assay: VPS34 DiscoveRx kinase panel; settings: Compound concentration 1.0 uM
[9] = biological target: MAP kinase-activated protein kinase 5 (Homo sapiens) (UniProt Q8IW41); assay: MAPKAPK5 DiscoveRx kinase panel; settings: Compound concentration 1.0 uM
[10] = biological target: Interleukin-1 receptor-associated kinase 3 (Homo sapiens) (UniProt Q9Y616); assay: IRAK3 DiscoveRx kinase panel; settings: Compound concentration 1.0 uM
[11] = biological target: Atypical kinase COQ8A, mitochondrial (Homo sapiens) (UniProt Q8NI60); assay: ADCK3 DiscoveRx kinase panel; settings: Compound concentration 1.0 uM
Chain of Atypical kinase COQ8A, mitochondrial (Homo sapiens) (Q8NI60 163-647 limits assumed): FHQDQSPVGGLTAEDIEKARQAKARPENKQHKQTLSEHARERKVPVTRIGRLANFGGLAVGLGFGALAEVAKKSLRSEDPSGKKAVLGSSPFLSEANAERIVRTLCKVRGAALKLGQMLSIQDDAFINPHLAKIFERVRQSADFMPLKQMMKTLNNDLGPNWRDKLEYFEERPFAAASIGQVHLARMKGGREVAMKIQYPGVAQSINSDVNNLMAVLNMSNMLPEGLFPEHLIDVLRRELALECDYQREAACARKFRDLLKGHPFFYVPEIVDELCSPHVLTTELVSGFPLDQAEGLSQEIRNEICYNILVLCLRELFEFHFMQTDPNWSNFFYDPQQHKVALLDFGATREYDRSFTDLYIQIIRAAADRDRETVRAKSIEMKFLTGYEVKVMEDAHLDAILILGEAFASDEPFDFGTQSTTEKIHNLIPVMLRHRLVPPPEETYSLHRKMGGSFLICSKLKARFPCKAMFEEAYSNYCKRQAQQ

[12] = biological target: 5-hydroxytryptamine receptor 2C (Homo sapiens) (UniProt P28335); settings: Compound concentration 10.0 uM
[13] = biological target: Tyrosine-protein kinase ABL2 (Homo sapiens) (UniProt P42684); assay: ABL2 DiscoveRx kinase panel; settings: Compound concentration 1.0 uM
[14] = biological target: D(1A) dopamine receptor (Homo sapiens) (UniProt P21728); settings: Compound concentration 10.0 uM
[15] = biological target: Beta-2 adrenergic receptor (Homo sapiens) (UniProt P07550); settings: Compound concentration 10.0 uM
[16] = biological target: Mitogen-activated protein kinase kinase kinase 10 (Homo sapiens) (UniProt Q02779); assay: MLK2 DiscoveRx kinase panel; settings: Compound concentration 1.0 uM
[17] = biological target: Rhodopsin kinase GRK7 (Homo sapiens) (UniProt Q8WTQ7); assay: GRK7 DiscoveRx kinase panel; settings: Compound concentration 1.0 uM
[18] = biological target: Serine/threonine-protein kinase Nek1 (Homo sapiens) (UniProt Q96PY6); assay: NEK1 DiscoveRx kinase panel; settings: Compound concentration 1.0 uM
[19] = biological target: Mitotic checkpoint serine/threonine-protein kinase BUB1 (Homo sapiens, UniProt O43683); assay: BUB1 surface plasmon resonance (SPR) assay
[20] = biological target: Receptor-interacting serine/threonine-protein kinase 2 (Homo sapiens) (UniProt O43353); assay: RIPK2 DiscoveRx kinase panel; settings: Compound concentration 1.0 uM
[21] = biological target: Megakaryocyte-associated tyrosine-protein kinase (Homo sapiens) (UniProt P42679); assay: CTK DiscoveRx kinase panel; settings: Compound concentration 1.0 uM
[22] = biological target: Alpha-1D adrenergic receptor (Homo sapiens) (UniProt P25100); assay: Inhibition of Adrenergic alpha1D at 10 µM in the Eurofins-Panlabs radioligand binding assay (Eurofins_assay_203400); settings: Compound concentration 10.0 uM
[23] = biological target: Serine/threonine-protein kinase SIK3 (Homo sapiens) (UniProt Q9Y2K2); assay: QSK DiscoveRx kinase panel; settings: Compound concentration 1.0 uM
[24] = biological target: Focal adhesion kinase 1 (Homo sapiens) (UniProt Q05397); assay: FAK DiscoveRx kinase panel; settings: Compound concentration 1.0 uM
[25] = test system: SUM149PT; assay: SUM-149 cell line Proliferation assay; format: functional, Homo sapiens; settings: time 4 day
[26] = biological target: Serine/threonine-protein kinase 3 (Homo sapiens) (UniProt Q13188); assay: MST2 DiscoveRx kinase panel; settings: Compound concentration 1.0 uM
[27] = biological target: Serine/threonine-protein kinase MARK2 (Homo sapiens) (UniProt Q7KZI7); assay: MARK2 DiscoveRx kinase panel; settings: Compound concentration 1.0 uM
Chain of Serine/threonine-protein kinase MARK2 (Homo sapiens) (Q7KZI7 whole entry): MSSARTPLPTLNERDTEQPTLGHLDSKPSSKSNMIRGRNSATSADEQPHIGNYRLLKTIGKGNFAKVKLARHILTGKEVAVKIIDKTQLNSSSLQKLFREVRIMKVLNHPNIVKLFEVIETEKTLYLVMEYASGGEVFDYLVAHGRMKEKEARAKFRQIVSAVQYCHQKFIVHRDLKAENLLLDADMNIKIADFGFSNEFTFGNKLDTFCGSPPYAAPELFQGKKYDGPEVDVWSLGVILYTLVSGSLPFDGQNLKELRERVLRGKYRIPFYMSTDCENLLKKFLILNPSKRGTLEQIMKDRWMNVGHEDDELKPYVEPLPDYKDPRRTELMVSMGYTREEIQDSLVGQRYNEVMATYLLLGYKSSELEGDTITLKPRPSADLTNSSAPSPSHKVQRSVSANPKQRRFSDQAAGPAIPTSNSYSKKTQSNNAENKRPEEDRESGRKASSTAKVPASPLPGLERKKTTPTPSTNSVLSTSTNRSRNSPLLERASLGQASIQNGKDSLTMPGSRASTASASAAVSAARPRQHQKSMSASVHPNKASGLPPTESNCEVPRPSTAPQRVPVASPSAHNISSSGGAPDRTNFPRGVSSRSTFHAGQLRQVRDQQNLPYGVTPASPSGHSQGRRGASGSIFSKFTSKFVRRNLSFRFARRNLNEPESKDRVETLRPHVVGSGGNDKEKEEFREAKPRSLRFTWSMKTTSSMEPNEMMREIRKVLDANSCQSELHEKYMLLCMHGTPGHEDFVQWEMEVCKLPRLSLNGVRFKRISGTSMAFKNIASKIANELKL

[28] = biological target: Angiopoietin-1 receptor (Homo sapiens) (UniProt Q02763); assay: TIE2 DiscoveRx kinase panel; settings: Compound concentration 1.0 uM
Chain of Angiopoietin-1 receptor (Homo sapiens) (Q02763 whole entry): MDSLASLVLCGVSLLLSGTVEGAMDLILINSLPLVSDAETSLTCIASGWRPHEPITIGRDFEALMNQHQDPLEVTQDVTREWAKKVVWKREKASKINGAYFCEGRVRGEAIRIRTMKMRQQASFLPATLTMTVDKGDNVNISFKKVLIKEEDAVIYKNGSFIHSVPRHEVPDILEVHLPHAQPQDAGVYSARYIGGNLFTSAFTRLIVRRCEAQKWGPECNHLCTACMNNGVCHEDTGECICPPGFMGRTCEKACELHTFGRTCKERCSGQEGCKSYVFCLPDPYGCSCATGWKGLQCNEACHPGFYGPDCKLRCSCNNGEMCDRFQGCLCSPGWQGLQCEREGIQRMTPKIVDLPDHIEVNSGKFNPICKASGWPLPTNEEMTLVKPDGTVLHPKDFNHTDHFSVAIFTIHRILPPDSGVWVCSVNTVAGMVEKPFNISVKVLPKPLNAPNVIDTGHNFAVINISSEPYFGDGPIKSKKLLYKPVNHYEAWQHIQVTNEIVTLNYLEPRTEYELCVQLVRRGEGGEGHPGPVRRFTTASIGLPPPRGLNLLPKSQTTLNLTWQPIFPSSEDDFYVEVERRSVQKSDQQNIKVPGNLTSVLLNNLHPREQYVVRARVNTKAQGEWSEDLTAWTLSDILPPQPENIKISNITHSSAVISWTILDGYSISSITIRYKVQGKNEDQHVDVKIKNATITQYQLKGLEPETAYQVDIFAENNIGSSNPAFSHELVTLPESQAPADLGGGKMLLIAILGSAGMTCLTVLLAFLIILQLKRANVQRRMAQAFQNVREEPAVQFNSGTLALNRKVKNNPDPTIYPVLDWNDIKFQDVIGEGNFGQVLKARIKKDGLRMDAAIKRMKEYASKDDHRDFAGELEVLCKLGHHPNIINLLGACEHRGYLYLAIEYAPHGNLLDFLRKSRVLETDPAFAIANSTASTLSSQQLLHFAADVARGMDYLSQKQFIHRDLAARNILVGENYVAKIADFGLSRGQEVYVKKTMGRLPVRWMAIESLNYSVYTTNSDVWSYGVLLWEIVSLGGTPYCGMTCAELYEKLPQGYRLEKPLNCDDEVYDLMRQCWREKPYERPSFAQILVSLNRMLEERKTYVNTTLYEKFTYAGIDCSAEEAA

[29] = biological target: Serine/threonine-protein kinase VRK2 (Homo sapiens) (UniProt Q86Y07); assay: VRK2 DiscoveRx kinase panel; settings: Compound concentration 1.0 uM
[30] = biological target: Serine/threonine-protein kinase Nek4 (Homo sapiens) (UniProt P51957); assay: NEK4 DiscoveRx kinase panel; settings: Compound concentration 1.0 uM
[31] = biological target: Sodium-dependent dopamine transporter (Homo sapiens, UniProt Q01959); settings: Compound concentration 10.0 uM
[32] = biological target: Cyclin-dependent kinase 7 (Homo sapiens) (UniProt P50613); assay: CDK7 DiscoveRx kinase panel; settings: Compound concentration 1.0 uM
[33] = biological target: Serine/threonine-protein kinase mTOR (Homo sapiens) (UniProt P42345); assay: MTOR DiscoveRx kinase panel; settings: Compound concentration 1.0 uM
[34] = biological target: Glutamate receptor 2 (Homo sapiens) (UniProt P42262); settings: Rattus norvegicus; Compound concentration 10.0 uM
[35] = biological target: cAMP-dependent protein kinase catalytic subunit beta (Homo sapiens) (UniProt P22694); assay: PKAC-beta DiscoveRx kinase panel; settings: Compound concentration 1.0 uM
[36] = biological target: Ribosomal protein S6 kinase alpha-6 (Homo sapiens) (UniProt Q9UK32); assay: RSK4(Kin.Dom.1-N-terminal) DiscoveRx kinase panel; settings: Compound concentration 1.0 uM
[37] = biological target: D(2) dopamine receptor (Homo sapiens) (UniProt P14416); settings: Compound concentration 10.0 uM
Chain of D(2) dopamine receptor (Homo sapiens) (P14416 whole entry): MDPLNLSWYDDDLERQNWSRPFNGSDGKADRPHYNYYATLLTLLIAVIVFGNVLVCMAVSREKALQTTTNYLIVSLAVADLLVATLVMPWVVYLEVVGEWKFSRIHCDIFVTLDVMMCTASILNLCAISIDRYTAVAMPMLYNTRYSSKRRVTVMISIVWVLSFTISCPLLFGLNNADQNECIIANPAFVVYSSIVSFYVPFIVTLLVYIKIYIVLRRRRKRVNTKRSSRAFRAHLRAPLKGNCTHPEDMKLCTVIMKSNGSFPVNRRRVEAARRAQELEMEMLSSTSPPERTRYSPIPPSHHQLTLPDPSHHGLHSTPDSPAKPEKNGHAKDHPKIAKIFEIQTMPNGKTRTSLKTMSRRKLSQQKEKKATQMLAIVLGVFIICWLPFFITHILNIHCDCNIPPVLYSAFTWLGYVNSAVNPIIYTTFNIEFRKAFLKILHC

[38] = biological target: Mitogen-activated protein kinase 10 (Homo sapiens) (UniProt P53779); assay: JNK3 DiscoveRx kinase panel; settings: Compound concentration 1.0 uM
[39] = biological target: BMP-2-inducible protein kinase (Homo sapiens) (UniProt Q9NSY1); assay: BIKE DiscoveRx kinase panel; settings: Compound concentration 1.0 uM
[40] = biological target: Ephrin type-A receptor 5 (Homo sapiens) (UniProt P54756); assay: EPHA5 DiscoveRx kinase panel; settings: Compound concentration 1.0 uM
[41] = biological target: Receptor tyrosine-protein kinase erbB-4 (Homo sapiens) (UniProt Q15303); assay: ERBB4 DiscoveRx kinase panel; settings: Compound concentration 1.0 uM
[42] = biological target: Mitogen-activated protein kinase kinase kinase kinase 1 (Homo sapiens) (UniProt Q92918); assay: HPK1 DiscoveRx kinase panel; settings: Compound concentration 1.0 uM
Chain of Mitogen-activated protein kinase kinase kinase kinase 1 (Homo sapiens) (Q92918 whole entry, looked up): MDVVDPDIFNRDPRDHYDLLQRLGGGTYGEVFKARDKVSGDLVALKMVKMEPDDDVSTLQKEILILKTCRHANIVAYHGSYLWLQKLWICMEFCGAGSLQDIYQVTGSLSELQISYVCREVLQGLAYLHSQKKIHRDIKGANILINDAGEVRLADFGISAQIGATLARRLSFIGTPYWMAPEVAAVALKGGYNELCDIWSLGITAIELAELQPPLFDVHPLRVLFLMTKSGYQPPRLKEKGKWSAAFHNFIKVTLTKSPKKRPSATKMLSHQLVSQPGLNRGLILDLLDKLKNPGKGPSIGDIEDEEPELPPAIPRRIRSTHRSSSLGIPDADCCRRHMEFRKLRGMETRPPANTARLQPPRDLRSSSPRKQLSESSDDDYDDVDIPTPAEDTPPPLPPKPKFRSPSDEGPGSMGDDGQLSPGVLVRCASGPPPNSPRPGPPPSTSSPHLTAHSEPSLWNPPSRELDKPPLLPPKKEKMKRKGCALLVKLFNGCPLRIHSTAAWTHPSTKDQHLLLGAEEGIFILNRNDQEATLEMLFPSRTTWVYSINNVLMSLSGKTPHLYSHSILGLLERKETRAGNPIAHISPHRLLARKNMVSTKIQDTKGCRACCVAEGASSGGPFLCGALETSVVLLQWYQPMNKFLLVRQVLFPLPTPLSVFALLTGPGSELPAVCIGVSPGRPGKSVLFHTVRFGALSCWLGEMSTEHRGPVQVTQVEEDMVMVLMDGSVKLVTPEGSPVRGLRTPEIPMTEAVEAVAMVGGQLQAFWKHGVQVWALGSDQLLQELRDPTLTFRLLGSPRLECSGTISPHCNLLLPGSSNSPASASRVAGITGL

[43] = biological target: Serine/threonine-protein kinase 33 (Homo sapiens) (UniProt Q9BYT3); assay: STK33 DiscoveRx kinase panel; settings: Compound concentration 1.0 uM
[44] = biological target: Serine/threonine-protein kinase Chk1 (Homo sapiens) (UniProt O14757); assay: CHEK1 DiscoveRx kinase panel; settings: Compound concentration 1.0 uM
[45] = biological target: Serine/threonine-protein kinase PLK1 (Homo sapiens) (UniProt P53350); assay: PLK1 DiscoveRx kinase panel; settings: Compound concentration 1.0 uM
[46] = biological target: Serine/threonine-protein kinase PAK 3 (Homo sapiens) (UniProt O75914); assay: PAK3 DiscoveRx kinase panel; settings: Compound concentration 1.0 uM
[47] = biological target: SRSF protein kinase 3 (Homo sapiens) (UniProt Q9UPE1); assay: SRPK3 DiscoveRx kinase panel; settings: Compound concentration 1.0 uM
[48] = biological target: Casein kinase I isoform epsilon (Homo sapiens) (UniProt P49674); assay: CSNK1E DiscoveRx kinase panel; settings: Compound concentration 1.0 uM
[49] = biological target: Serine/threonine-protein kinase MRCK alpha (Homo sapiens) (UniProt Q5VT25); assay: MRCKA DiscoveRx kinase panel; settings: Compound concentration 1.0 uM
[50] = biological target: Cyclin-dependent kinase-like 1 (Homo sapiens) (UniProt Q00532); assay: CDKL1 DiscoveRx kinase panel; settings: Compound concentration 1.0 uM
Chain of Cyclin-dependent kinase-like 1 (Homo sapiens) (Q00532 whole entry): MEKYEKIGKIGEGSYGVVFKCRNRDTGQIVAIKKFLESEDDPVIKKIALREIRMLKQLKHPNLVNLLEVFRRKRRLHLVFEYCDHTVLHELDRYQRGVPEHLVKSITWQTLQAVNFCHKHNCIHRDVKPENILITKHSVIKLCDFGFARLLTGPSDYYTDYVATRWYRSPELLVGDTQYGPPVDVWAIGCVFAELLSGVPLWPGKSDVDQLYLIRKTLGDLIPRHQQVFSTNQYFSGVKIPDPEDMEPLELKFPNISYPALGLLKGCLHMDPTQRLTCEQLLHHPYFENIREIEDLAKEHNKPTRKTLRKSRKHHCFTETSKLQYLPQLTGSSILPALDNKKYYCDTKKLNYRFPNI

Chain of Protein kinase C epsilon type (Homo sapiens) (Q02156 whole entry): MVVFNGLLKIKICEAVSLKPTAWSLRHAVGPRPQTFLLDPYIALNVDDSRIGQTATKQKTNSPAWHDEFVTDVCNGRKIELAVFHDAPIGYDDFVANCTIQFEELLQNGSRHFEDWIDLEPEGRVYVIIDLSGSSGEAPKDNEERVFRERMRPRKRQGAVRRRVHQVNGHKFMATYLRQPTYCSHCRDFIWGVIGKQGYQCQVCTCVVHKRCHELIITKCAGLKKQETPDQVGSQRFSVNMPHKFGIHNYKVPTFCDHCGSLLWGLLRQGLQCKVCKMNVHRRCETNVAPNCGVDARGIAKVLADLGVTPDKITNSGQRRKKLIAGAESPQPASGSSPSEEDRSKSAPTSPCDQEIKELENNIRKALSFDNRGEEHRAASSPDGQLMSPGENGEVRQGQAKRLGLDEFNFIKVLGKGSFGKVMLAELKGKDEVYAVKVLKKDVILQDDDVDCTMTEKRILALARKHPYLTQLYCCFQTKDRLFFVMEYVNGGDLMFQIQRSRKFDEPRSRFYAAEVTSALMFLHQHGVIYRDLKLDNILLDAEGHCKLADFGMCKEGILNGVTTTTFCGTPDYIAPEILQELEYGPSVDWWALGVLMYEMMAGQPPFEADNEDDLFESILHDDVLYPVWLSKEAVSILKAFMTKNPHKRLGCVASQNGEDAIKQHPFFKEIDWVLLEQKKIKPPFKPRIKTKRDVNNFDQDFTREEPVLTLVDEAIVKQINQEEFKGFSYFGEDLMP

COc1cnccc1Nc1nc(-c2nn(Cc3c(F)cc(OCCO)cc3F)c3ccccc23)ncc1OC
inhibition [1]: 1%
residual activity [2]: 100%
residual activity [3]: 57%
residual activity ([3]; Compound concentration 1.0 uM): 0.6%
inhibition [4]: 21.3%
inhibition [5]: 4%
Cell Proliferation IC50 [6]: 1.1 µM
residual activity [7]: 100%
residual activity [8]: 55%
residual activity [9]: 100%
residual activity [10]: 92%
residual activity [11]: 98%
inhibition [12]: 21%
residual activity [13]: 100%
inhibition [14]: 5%
inhibition [15]: 10%
residual activity [16]: 76%
residual activity [17]: 60%
residual activity [18]: 78%
Kd [19]: 2.1 nM (active)
residual activity [20]: 82%
residual activity [21]: 97%
inhibition [22]: 24%
residual activity [23]: 100%
residual activity [24]: 88%
Cell Proliferation IC50 [25]: 0.64 µM
residual activity [26]: 82%
residual activity [27]: 67%
residual activity [28]: 41%
residual activity [29]: 94%
residual activity [30]: 99%
inhibition [31]: 60.2%
residual activity [32]: 100%
residual activity [33]: 100%
inhibition [34]: 7%
residual activity [35]: 100%
residual activity [36]: 100%
inhibition [37]: 3.66%
residual activity [38]: 56%
residual activity [39]: 74%
residual activity [40]: 78%
residual activity [41]: 100%
residual activity [42]: 77%
residual activity [43]: 100%
residual activity [44]: 93%
residual activity [45]: 98%
residual activity [46]: 81%
residual activity [47]: 87%
residual activity [48]: 100%
residual activity [49]: 72%
residual activity [50]: 81%
